{"source": "patent US20210230213A1", "about": "“ARAMCHOL SALTS” (GALMED RESEARCH AND DEVELOPMENT LTD., priority 2013, published 2021)", "key": {"[1]": {"test": "Stability of Aramchol free acid", "assay_type": "physicochemical", "settings": "6 months 40° C./75% RH; 12 months 25° C./60% RH; 30° C./65% RH", "protocol": "For Aramchol free acid, 6 months stability data have been generated at 40° C./75% relative humidity and for 12 months at real time 25° C./60% relative humidity and also at the intermediate conditions of 30° C./65% relative humidity."}, "[2]": {"test": "Twice daily administration for 10 days of Aramchol and Aramchol meglumine in humans (Example 9)", "assay_type": "in vivo", "settings": "free acid 300 mg, meglumine salt 383 mg", "protocol": "300 mg aramchol free acid were administered to human subjects twice daily, and 383 mg aramchol meglumine salt were administered to human subjects twice daily, as detailed in FIG. 13."}, "[3]": {"test": "Saturated solubility in buffer solutions and bio-relevant media at 37° C. (Example 6)", "assay_type": "physicochemical", "settings": "for solubility at 24 h / solubility at 30 min: thermodynamic from solid"}, "[4]": {"test": "Fill weight of size 00 HPMC capsule", "assay_type": "physicochemical", "settings": "hard HPMC capsule size 00, filled as is without tapping", "description": "Aramchol (free acid), and the three salts were filled as are, into hard HPMC (Hypromellose; Capsule size 00 (CapsCanada, ON, Canada) without taping, fill weight is presented in table 9."}, "in vivo": {"test": "in vivo", "settings": "dog, in vivo", "protocol": "Capsules containing 100 mg of Aramchol were dosed to dogs as either the free acid or the meglumine salt.\nThe complete data-set across all animals and time-points for each dose form (free acid or meglumine salt) were fit to single compartment PK models with first order rate of absorption Ka (h−1) and elimination parameterised by CL and V (rate of elimination=CL/V, h−1). For the meglumine salt group, the first dose data for M5 was removed.\nCapsules containing 100 mg of Aramchol were dosed to dogs as either the free acid or the meglumine salt BID. […] A clinical study that investigated the plasma concentration of Aramchol after oral dosing of 300 mg BID at steady state was conducted in 16 healthy volunteers."}, "[5]": {"test": "Solubility of Aramchol (free acid) in aqueous media", "assay_type": "physicochemical"}, "Bulk and tapped density": {"test": "Bulk and tapped density", "assay_type": "physicochemical", "description": "Measurements of tapped and bulk densities are used to predict the flow properties and compressibility of powders. These two properties are important for manufacture of solid dosage formulations, such as tablets and capsules. Compounds with low values of tapped and bulk densities may be subject to difficulties in tablet compression, and therefore may require additional processing for improving flow properties. […] Therefore, to improve flow properties a wet granulation process is used prior to tablet compression."}, "[6]": {"test": "Clinical study, plasma Aramchol at steady state after 300 mg BID", "assay_type": "in vivo, humans", "settings": "human, po"}, "[7]": {"test": "In vivo permeability / PK after intrajejunal administration in cannulated rats (Example 7)", "set-up": "species or system male Wistar rats", "settings": "rat", "protocol": "An in vivo permeability study of Aramchol salts was performed in male Wistar rats cannulated in the jugular vein and in the jejunum. Intestinal cannulation was performed in order to bypass protonation of Aramchol salts in acidic gastric pH. Aramchol salts solubilized in PBS (30 mg/mL) were administered to rats intestine (jejunum) in a dose of 100 mg/kg (based on free acid), via a cannula inserted into the proximal side of the jejunum. A suspension of Aramchol free acid (in PBS, 30 mg/mL) was administered via the same route and was used as control. Blood samples were withdrawn via a cannula inserted into jugular vein at pre-determined time points (pre-dose, 1 hr, 2 hr, 4 hr, 8 hr, 12 hr, 24 hr post dose). Plasma concentrations of Aramchol (free acid) were measured using a liquid chromatography-tandem mass spectrometry (LC-MS-MS) method by Analyst Bioanalytical Laboratories, Israel. All PK parameters were calculated using non-compartmental analysis. Only those plasma concentrations equal to or greater than the lower limit of quantitation (LOQ) (48.66 ng/mL) were used in the analysis. Plasma concentrations <LOQ that occurred from pre-dose to the first concentration ≥LOQ were treated as 0. Actual sampling times were used for all pharmacokinetic analyses. The following PK parameters were calculated: maximum plasma concentration (Cmax), time to Cmax (Tmax), area under the plasma concentration-time curve from time of administration until the last plasma concentration (AUC0-4), AUC/dose, elimination half-life (t½). Cmax and Tmax were taken directly from the data. Area under the curve from zero to the final sample with a concentration ≥LOQ. AUC0-4 was calculated using the linear trapezoidal method."}}}
{"compound": "CCCCCCCCCCCCCCCCCCCC(=O)N[C@H]1CCC2(C)C(CC(O)C3C2C[C@H](O)C2(C)C(C(C)CCC(=O)O)CCC32)C1", "note": "(stereo in doubt) [Aramchol (free acid), 3β-arachidylamido-7α,12α-dihydroxy-5β-cholan-24-oic acid, reference compound]", "values": [{"measurement": "stability", "setting": "[1]", "result": "no significant changes to any parameters"}, {"measurement": "AUCss 0-12 h", "setting": "[2]; BID for 10 days", "result": 53, "unit": "µg·h/mL"}, {"measurement": "Cavg", "setting": "[2]; BID for 10 days", "result": 4154, "unit": "ng/mL"}, {"measurement": "AUC", "setting": "[2]; human, blood, BID", "result": 53, "unit": "µg·h/mL"}, {"measurement": "solubility", "setting": "[3]; Acetate buffer pH 4.5, 24 h, 37° C.", "result": "Not soluble"}, {"measurement": "solubility", "setting": "[3]; Demi-Water (pH 7.8), 24 h, 37° C.", "result": "Not soluble"}, {"measurement": "solubility", "setting": "[3]; HCl buffer pH 1.2, 24 h, 37° C.", "result": "Not soluble"}, {"measurement": "solubility", "setting": "[3]; Phosphate buffer pH 7.0, 24 h, 37° C.", "result": "Not soluble"}, {"measurement": "solubility", "setting": "[3]; Saline pH 5.5, 24 h, 37° C.", "result": "Not soluble"}, {"measurement": "solubility at 24 h", "setting": "[3]; phosphate buffer, pH 6.5, 24 h", "result": "< 1", "unit": "µg/mL"}, {"measurement": "solubility at 30 min", "setting": "[3]; FaSSIF (pH 6.5), 37° C.", "result": 50, "unit": "µg/mL"}, {"measurement": "solubility at 24 h", "setting": "[3]; FaSSIF (pH 6.5), 24 h, 37° C.", "result": 130, "unit": "µg/mL"}, {"measurement": "solubility at 30 min", "setting": "[3]; FeSSIF (pH 5.0), 37° C.", "result": 660, "unit": "µg/mL"}, {"measurement": "solubility at 24 h", "setting": "[3]; FeSSIF (pH 5.0), 24 h, 37° C.", "result": 310, "unit": "µg/mL"}, {"measurement": "fill weight of one 00 size capsule", "setting": "[4]", "result": 0.15, "unit": "gram"}, {"measurement": "AUC0-12 h/AUCinf", "setting": "in vivo", "result": 0.97}, {"measurement": "Ka", "setting": "in vivo", "result": 0.234, "unit": "h⁻¹"}, {"measurement": "V", "setting": "in vivo", "result": 16893}, {"measurement": "clearance", "setting": "in vivo", "result": 6.82, "unit": "mL/min"}, {"measurement": "AUC", "setting": "in vivo; 100 mg", "result": 901, "unit": "µg·h/mL"}, {"measurement": "AUC(0-inf)", "setting": "in vivo; AUCinf D1", "result": 241, "unit": "µg·h/mL"}, {"measurement": "AUC(0-inf)", "setting": "in vivo; AUCinf from day 11 onwards", "result": 1130, "unit": "µg·h/mL"}, {"measurement": "Half-life", "setting": "in vivo; po, 100 mg, Half-life", "result": 25.9, "unit": "h"}, {"measurement": "solubility", "setting": "[5]; FeSSIF, pH 5, fessif, read-out: max solubility in FeSSIF", "result": 660, "unit": "µg/mL"}, {"measurement": "solubility", "setting": "[5]; aqueous buffer, buffer pH 6.0, read-out: solubility in buffer at pH 6.0", "result": "< 1", "unit": "µg/mL"}, {"measurement": "Bulk density", "setting": "Bulk and tapped density", "result": 0.15, "unit": "g/mL"}, {"measurement": "Tapped density", "setting": "Bulk and tapped density", "result": 0.17, "unit": "g/mL"}, {"measurement": "AUC", "setting": "[6]", "result": 114, "unit": "µg·h/mL"}, {"measurement": "Half-life", "setting": "[7]; male, Wistar, plasma, 100 mg/kg, mean ± standard error", "result": 4.5, "unit": "h"}, {"measurement": "AUC(0-t)", "setting": "[7]; male, Wistar, plasma, 100 mg/kg, mean ± standard error, read-out: AUC 0-t", "result": "12.1 ± 3.63", "unit": "µg·h/mL"}, {"measurement": "Tmax", "setting": "[7]; male, Wistar, plasma, 100 mg/kg, median, read-out: Tmax", "result": 4, "unit": "h"}, {"measurement": "Cmax", "setting": "[7]; male, Wistar, 100 mg/kg (based on free acid) in PBS 30 mg/mL, plasma Aramchol (free acid), mean ± standard error, read-out: Cmax", "result": "1360 ± 359", "unit": "ng/mL"}, {"measurement": "AUC/dose", "setting": "[7]; 100 mg/kg, mean ± standard error", "result": "124.2 ± 38.9 (5) hr × ng × kg/mL × mg"}]}
